# Results reported in PubChem BioAssay (NCI).
#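 Abbreviation: GI50, concentration required for 50% inhibition of growth. Definition used: TGI = concentration required for complete inhibition of growth.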
# Assays:
# Test in all cases: DTP human tumour cell line panel, 384-well format
# TK-10 renal = test system: TK-10 renal
# MALME-3M melanoma = test system: MALME-3M melanoma
# BT-549 breast = test system: BT-549 breast
# SF-268 CNS = test system: SF-268 CNS
# NCI-H460 NSCLC = test system: NCI-H460 NSCLC
# A549 NSCLC = test system: A549 NSCLC
# NCI-H522 lung = test system: NCI-H522 lung
# NCI-H322M lung = test system: NCI-H322M lung
# HOP-92 NSCLC = test system: HOP-92 NSCLC
# EKVX NSCLC = test system: EKVX NSCLC
# UACC-257 melanoma = test system: UACC-257 melanoma
# MDA-MB-231 breast = test system: MDA-MB-231 breast
# HCT-116 colon = test system: HCT-116 colon
# HL-60(TB) leukemia = test system: HL-60(TB) leukemia
# RPMI-8226 leukemia = test system: RPMI-8226 leukemia
# A498 renal = test system: A498 renal
# OVCAR-8 ovarian = test system: OVCAR-8 ovarian
# RXF 393 renal = test system: RXF 393 renal
# MCF7 breast = test system: MCF7 breast
# PC-3 prostate = test system: PC-3 prostate
# HS 578T breast = test system: HS 578T breast
# ACHN renal = test system: ACHN renal
# UO-31 renal = test system: UO-31 renal
# OVCAR-4 ovarian = test system: OVCAR-4 ovarian
# 786-0 renal = test system: 786-0 renal
# MDA-MB-468 breast = test system: MDA-MB-468 breast
# MOLT-4 leukemia = test system: MOLT-4 leukemia
# HOP-62 NSCLC = test system: HOP-62 NSCLC
# U251 glioblastoma = test system: U251 glioblastoma
# IGROV1 ovarian = test system: IGROV1 ovarian
# COLO 205 colon = test system: COLO 205 colon
# KM12 colon = test system: KM12 colon
# K-562 leukemia = test system: K-562 leukemia
# MDA-MB-435 melanoma = test system: MDA-MB-435 melanoma
# M14 melanoma = test system: M14 melanoma
# SW-620 colon = test system: SW-620 colon
# SNB-19 CNS = test system: SNB-19 CNS
# CAKI-1 renal = test system: CAKI-1 renal
# SF-295 CNS = test system: SF-295 CNS
# NCI-H23 lung = test system: NCI-H23 lung
# SF-539 CNS = test system: SF-539 CNS
# NCI/ADR-RES ovarian = test system: NCI/ADR-RES ovarian
# DU-145 prostate = test system: DU-145 prostate
# SNB-75 CNS = test system: SNB-75 CNS
# SK-MEL-28 melanoma = test system: SK-MEL-28 melanoma
# LOX IMVI melanoma = test system: LOX IMVI melanoma
# NCI-H226 lung = test system: NCI-H226 lung
# OVCAR-5 ovarian = test system: OVCAR-5 ovarian
# HCT-15 colon = test system: HCT-15 colon
# SN12C renal = test system: SN12C renal
# T-47D breast = test system: T-47D breast
# SK-MEL-5 melanoma = test system: SK-MEL-5 melanoma
# UACC-62 melanoma = test system: UACC-62 melanoma
# HCC-2998 colon = test system: HCC-2998 colon
# HT29 colon = test system: HT29 colon
# CCRF-CEM leukemia = test system: CCRF-CEM leukemia
compound,measurement,setting,value
O=C1NC(=O)C(c2cnc3ccccn23)=C1c1cn2c3c(cc(F)cc13)CN(C(=O)N1CCCCC1)CC2,GI50,TK-10 renal,0.0598 µM
same,TGI,TK-10 renal,43.7 µM
same,GI50,MALME-3M melanoma,11.1 µM
same,TGI,MALME-3M melanoma,24 µM
same,GI50,BT-549 breast,< 0.01 µM
same,TGI,BT-549 breast,18.6 µM
same,GI50,SF-268 CNS,0.138 µM
same,TGI,SF-268 CNS,0.491 µM
same,GI50,NCI-H460 NSCLC,0.701 µM
same,TGI,NCI-H460 NSCLC,3.17 µM
same,GI50,A549 NSCLC,2.36 µM
same,TGI,A549 NSCLC,27.8 µM
same,GI50,NCI-H522 lung,13.5 µM
same,TGI,NCI-H522 lung,26.7 µM
same,GI50,NCI-H322M lung,7.72 µM
same,TGI,NCI-H322M lung,29.2 µM
same,GI50,HOP-92 NSCLC,1.32 µM
same,TGI,HOP-92 NSCLC,> 100 µM
same,GI50,EKVX NSCLC,11.7 µM
same,TGI,EKVX NSCLC,26.2 µM
same,GI50,UACC-257 melanoma,18.6 µM
same,TGI,UACC-257 melanoma,33.7 µM
same,GI50,MDA-MB-231 breast,16.3 µM
same,TGI,MDA-MB-231 breast,54.9 µM
same,GI50,HCT-116 colon,1.12 µM
same,TGI,HCT-116 colon,28.4 µM
same,GI50,HL-60(TB) leukemia,0.464 µM
same,TGI,HL-60(TB) leukemia,2.72 µM
same,GI50,RPMI-8226 leukemia,0.901 µM
same,TGI,RPMI-8226 leukemia,20.7 µM
same,GI50,A498 renal,0.0156 µM
same,TGI,A498 renal,13.2 µM
same,GI50,OVCAR-8 ovarian,0.833 µM
same,TGI,OVCAR-8 ovarian,14.4 µM
same,GI50,RXF 393 renal,< 0.01 µM
same,TGI,RXF 393 renal,0.362 µM
same,GI50,MCF7 breast,< 0.01 µM
same,TGI,MCF7 breast,17.1 µM
same,GI50,PC-3 prostate,2.17 µM
same,TGI,PC-3 prostate,18.8 µM
same,GI50,HS 578T breast,< 0.01 µM
same,GI50,ACHN renal,0.743 µM
same,TGI,ACHN renal,11.3 µM
same,GI50,UO-31 renal,< 0.01 µM
same,TGI,UO-31 renal,0.0398 µM
same,GI50,OVCAR-4 ovarian,11.4 µM
same,TGI,OVCAR-4 ovarian,32 µM
same,GI50,786-0 renal,0.0779 µM
same,TGI,786-0 renal,12.4 µM
same,GI50,MDA-MB-468 breast,0.0283 µM
same,TGI,MDA-MB-468 breast,0.116 µM
same,GI50,MOLT-4 leukemia,< 0.01 µM
same,TGI,MOLT-4 leukemia,0.0107 µM
same,GI50,HOP-62 NSCLC,0.172 µM
same,TGI,HOP-62 NSCLC,2.58 µM
same,GI50,U251 glioblastoma,0.0303 µM
same,TGI,U251 glioblastoma,0.332 µM
same,GI50,IGROV1 ovarian,2.73 µM
same,TGI,IGROV1 ovarian,22.2 µM
same,GI50,COLO 205 colon,12.7 µM
same,TGI,COLO 205 colon,26 µM
same,GI50,KM12 colon,4.89 µM
same,TGI,KM12 colon,21.6 µM
same,GI50,K-562 leukemia,< 0.01 µM
same,TGI,K-562 leukemia,19.1 µM
same,GI50,MDA-MB-435 melanoma,14.8 µM
same,TGI,MDA-MB-435 melanoma,40.4 µM
same,GI50,M14 melanoma,2.18 µM
same,TGI,M14 melanoma,12 µM
same,GI50,SW-620 colon,0.379 µM
same,TGI,SW-620 colon,15 µM
same,GI50,SNB-19 CNS,1.34 µM
same,TGI,SNB-19 CNS,37.9 µM
same,GI50,CAKI-1 renal,0.259 µM
same,TGI,CAKI-1 renal,51.4 µM
same,GI50,SF-295 CNS,0.0175 µM
same,TGI,SF-295 CNS,0.735 µM
same,GI50,NCI-H23 lung,11 µM
same,TGI,NCI-H23 lung,25.3 µM
same,GI50,SF-539 CNS,< 0.01 µM
same,TGI,SF-539 CNS,12.7 µM
same,GI50,NCI/ADR-RES ovarian,5.91 µM
same,TGI,NCI/ADR-RES ovarian,21.2 µM
same,GI50,DU-145 prostate,2.18 µM
same,TGI,DU-145 prostate,8.62 µM
same,GI50,SNB-75 CNS,< 0.01 µM
same,TGI,SNB-75 CNS,14.4 µM
same,GI50,SK-MEL-28 melanoma,15.2 µM
same,TGI,SK-MEL-28 melanoma,29.2 µM
same,GI50,LOX IMVI melanoma,0.77 µM
same,TGI,LOX IMVI melanoma,9.29 µM
same,GI50,NCI-H226 lung,1.84 µM
same,TGI,NCI-H226 lung,11.4 µM
same,GI50,OVCAR-5 ovarian,23 µM
same,TGI,OVCAR-5 ovarian,55.3 µM
same,GI50,HCT-15 colon,12.4 µM
same,TGI,HCT-15 colon,34.1 µM
same,GI50,SN12C renal,10.7 µM
same,TGI,SN12C renal,38.9 µM
same,GI50,T-47D breast,12.7 µM
same,TGI,T-47D breast,28 µM
same,GI50,SK-MEL-5 melanoma,4.08 µM
same,TGI,SK-MEL-5 melanoma,15.4 µM
same,GI50,UACC-62 melanoma,0.513 µM
same,TGI,UACC-62 melanoma,3.74 µM
same,GI50,HCC-2998 colon,0.128 µM
same,TGI,HCC-2998 colon,0.773 µM
same,GI50,HT29 colon,10.3 µM
same,TGI,HT29 colon,24.5 µM
same,GI50,CCRF-CEM leukemia,< 0.01 µM
same,TGI,CCRF-CEM leukemia,0.245 µM
